# Read-outs that look alike come from different tables or passages of the source. Ends that are not written are not given here. Peptide text beside a SMILES is read from it.
# T1: E. coli ProRS (Escherichia coli, UniProt P16659)
# T1 construct: made in house
# T1 sequence (P16659 whole entry, looked up): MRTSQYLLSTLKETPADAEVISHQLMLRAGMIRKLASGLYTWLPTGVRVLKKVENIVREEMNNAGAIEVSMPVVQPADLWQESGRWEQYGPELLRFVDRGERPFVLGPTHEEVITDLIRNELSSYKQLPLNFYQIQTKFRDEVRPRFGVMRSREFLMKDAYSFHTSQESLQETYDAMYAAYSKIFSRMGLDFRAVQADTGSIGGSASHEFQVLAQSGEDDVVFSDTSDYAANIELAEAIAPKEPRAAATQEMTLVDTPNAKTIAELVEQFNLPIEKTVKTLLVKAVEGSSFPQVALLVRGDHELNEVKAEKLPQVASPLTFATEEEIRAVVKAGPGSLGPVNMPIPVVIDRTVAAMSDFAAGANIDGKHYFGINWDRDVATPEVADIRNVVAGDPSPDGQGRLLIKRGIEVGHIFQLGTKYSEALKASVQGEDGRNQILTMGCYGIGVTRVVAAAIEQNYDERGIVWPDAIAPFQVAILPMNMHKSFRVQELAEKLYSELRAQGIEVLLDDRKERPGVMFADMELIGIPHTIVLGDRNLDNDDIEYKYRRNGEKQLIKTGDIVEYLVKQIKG
# T2: E. coli prolyl-tRNA synthetase (ProRS) (Escherichia coli), P16659
# T2 chain: T1 sequence (P16659 whole entry, looked up)
# Legend:
# E. coli pPROTet-GST = experiment: Lethal i.p. infection in mice, vector control strain; type: in vivo, CD-1 female mice; settings: E. coli pPROTet-GST 10^8 cfu/mouse i.p., i.p. ×2
# Procedure: Groups 5 through 8 served as vector control. The control inoculum was prepared from E. coli pPROTet-GST whose vector carries a gene encoding glutathione S-transferase, but no Pro-3 peptide. E. coli pPROTet-GST was cultured at 37° C. for 17 hr in Luria-Bertani broth containing spectinomycin and chloramphenicol, and then 100 μl of the culture were diluted to 1 ml with the medium for reading OD at 600 nm (0.2858, the medium as blank). Then 3×10^9 cfu (1.05 ml) from the overnight culture were diluted to 15 ml with 0.01 M phosphate buffered saline containing 8% hog gastic mucin. Each mouse of groups 5 through 8 was injected (i.p.) with E. coli pPROTet-GST inocula equivalent to 1×10^8 cfu/mouse (lethal dose).
# (§1) One and four hours after the inoculation, groups 1 and 5 animals received a saline injection i.p. at 10 ml/kg; groups 2, 3 and 4 animals received i.p. injections of anhydrotetracycline at 2, 1 and 0.5 mg/kg (diluted in saline), respectively; groups 6, 7 and 8 received i.p. injections of anhydrotetracycline at 2, 1 and 0.5 mg/kg, respectively. The injection volume for all the animals was 10 ml/kg.
# [1] = test system: E. coli JM109/pSC/pC^3844; experiment: Lethal i.p. infection in mice, induced in vivo expression of Pro-3; set-up: species or system CD-1 female mice; settings: E. coli JM109/pSC/pC^3844 10^8 cfu/mouse i.p., i.p. ×2
# Source text: Intracellularly expressed Pro-3 was expected to bind to and inhibit a specific essential cellular target in a manner similar to that of an antimicrobial drug. Pro-3 was expected to cure the infection when its expression was induced in an animal model of bacterial infection. An established animal infection model was used to test this concept (C. O. Onyeji et al., Antimicrob. Agents Chemother. 38:1112-1117 (1994)).
# Eight groups of CD-1 female mice (5 mice per group, Charles River Laboratories; Wilmington, Mass.) weighing 20-24 g were used in this experiment. The inoculum was prepared from E. coli JM109/pSC/pC^3844 which was cultured at 37° C. for 17 hr in Luria-Bertani broth containing spectinomycin and chloramphenicol, and then 100 μl of the culture was diluted to 1 ml with medium for reading OD at 600 nm (0.2403, the medium as blank). The turbidity of a 0.5 McFarland standard is equivalent to OD6000.1, or 10^8 cfu/ml. Then 3×10^9 cfu (colony-forming units) of E. coli JM109/pSC/pC^3844 (1.25 ml) from the overnight culture were diluted to 15 ml with 0.01 M phosphate buffered saline (Sigma P-0261) containing 8% hog gastric mucin (Sigma M-2378), 100 μg/ml spectinomycin and 68 μg/ml chloramphenicol. Each mouse of groups 1 through 4 was injected with 0.5 ml of the inoculum intraperitoneally (i.p.), equivalent to 1×10^8 cfu/mouse (lethal dose).
# as §1
# Sa MetRS = Sa MetRS (Staphylococcus aureus, UniProt Q5HII6); experiment: Sa MetRS/Met1-F fluorescence polarization binding assay
# Sa MetRS, sequence (Q5HII6 whole entry): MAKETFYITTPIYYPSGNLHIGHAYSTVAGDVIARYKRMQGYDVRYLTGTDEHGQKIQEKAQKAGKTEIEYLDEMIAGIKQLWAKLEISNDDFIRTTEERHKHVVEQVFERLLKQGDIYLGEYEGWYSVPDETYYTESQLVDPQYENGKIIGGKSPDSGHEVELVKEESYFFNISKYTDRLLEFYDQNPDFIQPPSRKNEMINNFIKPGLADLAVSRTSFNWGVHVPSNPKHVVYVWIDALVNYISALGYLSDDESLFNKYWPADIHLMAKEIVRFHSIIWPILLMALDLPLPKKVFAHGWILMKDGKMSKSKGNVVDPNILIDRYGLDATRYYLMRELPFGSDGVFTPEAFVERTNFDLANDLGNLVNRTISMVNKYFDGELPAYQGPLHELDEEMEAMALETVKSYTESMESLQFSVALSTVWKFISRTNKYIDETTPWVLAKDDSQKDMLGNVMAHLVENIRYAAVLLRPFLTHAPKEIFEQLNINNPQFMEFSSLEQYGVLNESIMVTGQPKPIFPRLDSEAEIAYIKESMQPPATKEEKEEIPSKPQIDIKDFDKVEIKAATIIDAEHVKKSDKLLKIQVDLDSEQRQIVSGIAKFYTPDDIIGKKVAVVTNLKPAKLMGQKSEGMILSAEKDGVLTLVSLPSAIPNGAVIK
# Procedure: A non-radioactive, homogeneous, sensitive fluorescent polarization (FP) assay has been developed for Staphylococcus aureus MetRS (Sa MetRS) and Met1 peptide. FP is a ratiometric detection method which is capable of discriminating between free and bound states of fluorescently labeled tracer based on differences in the rotation rates of the two states. The Sa MetRS FP binding assay involves the incubation of fluorescently labeled Met1 peptide (Met1-F) with purified Sa MetRS. In the bound state, Met1-F is bound to Sa MetRS and an increase in polarization signal is detected using a FP detection system. In the free state, Met1-F is not bound to Sa MetRS and there is a decrease in polarization signal.
# A 96-well plate (Costar cat# 3915) was blocked for 1 hour at room temperature with 150 μL/well 2 mg/ml bovine serum albumin (BSA) (FisherBiotech cat# BP1600-100) in 0.1 M NaHCO3. The plate was then washed manually three times with 150 μL/well of TBS (10 mM Tris-HCl pH 8.0, 150 mM NaCl). […] The plate was then read in an LJL Analyst (LJL Biosystems, Sunnyvale Calif.) in fluorescent polarization mode.
# The FP assay for Sa MetRS inhibition has been evaluated to see if it is amenable for high throughput screening (HTS) for drug discovery. […] The IC50 for Met1 was tested on the plate in duplicate and the results were consistent with previously determined values. […]
# S. aureus MetRS = S. aureus MetRS (Staphylococcus aureus, UniProt Q5HII6); experiment: S. aureus MetRS aminoacylation (functional charging) assay; type: biochemical
# S. aureus MetRS, sequence (Q5HII6 whole entry): as above
# Procedure: The activity of S. aureus MetRS was monitored by the aminoacylation reaction. The enzyme was diluted in 50 mM HEPES, pH 7.55, 5 mM DTT and 0.01% BSA. A typical 50 μL reaction mixture contained 30 mM HEPES, pH 7.5, 10 mM MgCl2, 30 mM KCl, 90 μM E. coli tRNA, 2 mM ATP and 5 μM [^3H]-methionine (10 Ci/mmol). The reaction was initiated by addition of enzyme at 25° C. At 4 different timepoints, 10 μL of the reaction was quenched into 150 μL cold 5% TCA on a Millipore filter plate. The filter plate is then washed three times with cold 5% TCA followed by water and then ethanol. The filter plate was dried before addition of 100 μL Packard Microscint-20 and counted on a Packard Top-Count microplate scintillation counter.
# Inhibition studies were performed for the peptides against two of the substrates, ATP and methionine. This was done at varying concentrations of peptides by holding the concentration of one substrate at its K value (1.5 mM for ATP and 5 μM for methionine), while varying the other substrate concentration around its Km value. The initial velocity data obtained were then analyzed using GraFit.
# [2] = test system: E. coli JM109/pSC/pC^3844; experiment: E. coli growth in culture upon regulated expression of Pro-3/GST; type: cell-based, Escherichia coli; settings: anhydrotetracycline induction, compared with GST alone
# Procedure: Overnight cultures of JM109/pSC cells harboring pC^3844 (JM109/pSC/pC^3844), or pPROTet-GST (same as pC^3844 without the Pro-3 peptide sequence) were diluted 100-fold in fresh LB medium containing 34 μg/mL chloramphenicol and 50 μg/mL spectinomycin. After 2 hours growth at 37° C., 100 μL aliquots of each of these bacterial cultures were transferred to wells of a 96-well microtiter plate, with or without 10 ng of anhydrotetracycline dissolved in 1 μL ethanol. The growth of bacterial cultures, which were constantly under agitation, was monitored with a plate reader (SpectraMAX-250, Molecular Devices).
# E. coli ProRS = target: T1, E. coli ProRS; experiment: E. coli ProRS tRNA charging (aminoacylation) inhibition; type: biochemical; settings: read-out: K, (inhibition of E. coli ProRS aminoacylation activity)
# Source text: In order to produce pure protein for peptide selection, the E. coli ProRS gene (Genbank accession number: M97858) was PCR amplified and cloned into the pET-20b vector (Novagen) using standard molecular cloning protocols (J. Sambrook, et al., Molecular Cloning: A Laboratory Manual, 2nd edition, Cold Spring Harbor Laboratory Press, 1989). The overexpressed ProRS was purified sequentially on Q- and SP-Sepharose columns. […] Thirteen clones from phages that were identified as having a high affinity to ProRS were sequenced. These clones share 4 different sequences, 3 of which are closely related (Table l). See Example 4 of WO98/19162, published 7 May 1998.
# The peptide having sequence number 3 was synthesized and tested for inhibition of tRNA charging activity of E. coli ProRS. […] This peptide is called Pro-3 (also, Pro3).
# The expressed Pro-3/GST fusion protein was purified on a glutathione-agarose affinity column according to a procedure provided by Pharmacia (see, cg., procedures manual from Pharmacia P-L Biochemicals, Inc.: GST Gene Fusion System, regarding use of pGEX expression vectors and glutathione-S-transferase fusion proteins, 1993). The N-terminal sequence of the purified protein was determined by Edman cycles and confirmed to have the expected Pro-3 peptide sequence. […]
# [3] = target: E. coli prolyl-tRNA synthetase (ProRS) (Escherichia coli) (UniProt P16659); experiment: cell-based or functional assay
# [4] = target: E. coli prolyl-tRNA synthetase (ProRS) (Escherichia coli) (UniProt P16659); experiment: inhibition of ProRS enzyme activity, purified fusion protein
# [5] = target: T2, E. coli prolyl-tRNA synthetase (ProRS) …; experiment: inhibition of tRNA charging activity, synthetic peptide
molecule,measurement,setting,value
"Cc1c2c(c(O)c3c(O)cccc13)C(=O)[C@]1(O)C(=O)C(C(N)=O)=C(O)[C@@H](N(C)C)[C@@H]1C2 [Anhydrotetracycline, anhydrotetracycline]",Survival (7 days),E. coli pPROTet-GST; inducer 0.5 mg/kg,0/5
same,Survival (7 days),E. coli pPROTet-GST; inducer 1 mg/kg,0/5
same,Survival (7 days),E. coli pPROTet-GST; inducer 2 mg/kg,0/5
same,Survival (7 days),[1]; inducer 0.5 mg/kg,5/5
same,Survival (7 days),[1]; inducer 1 mg/kg,5/5
same,Survival (7 days),[1]; inducer 2 mg/kg,5/5
"CSCC[C@H](NC(=O)[C@@H]1CCCN1C(=O)[C@H](Cc1c[nH]c2ccccc12)NC(=O)[C@H](CCCNC(=N)N)NC(=O)[C@H](CC(C)C)NC(=O)[C@H](CCC(N)=O)NC(=O)[C@H](Cc1c[nH]c2ccccc12)NC(=O)[C@@H](NC(=O)[C@H](CC(N)=O)NC(=O)[C@@H]1CCCN1C(=O)[C@@H](N)CC(=O)O)[C@@H](C)O)C(=O)N[C@@H](Cc1c[nH]cn1)C(=O)O [JT01, DPNTWQLRWPMH] (H-DPNTWQLRWPMH-OH; N-terminus and C-terminus assumed)",IC50,Sa MetRS,700 nM
same,solubility,,> 100 µM
same,IC50,S. aureus MetRS,0.2 µM
same,Ki,"S. aureus MetRS; Kl (ATP), ATP varied, methionine held at 5 μM",13 nM
same,Ki,"S. aureus MetRS; Kl (methionine), methionine varied, ATP held at 1.5 mM",138 nM
MWDLPYIWSRPV [JT02],Ki,"S. aureus MetRS; methionine varied, ATP held at 1.5 mM, read-out: Kl (methionine)",1700 nM
"Pro-3/GST: Pro-3 peptide fused through a 4-amino acid linker to glutathione S-transferase (GST), expressed from pC^3844 (SREWHFWRDYNPTSREGGG; also: fused to GST through a linker, GST left off)",E. coli growth (OD600) upon expression,[2],inhibits E. coli growth
same,Ki,E. coli ProRS,180 nM
SREWHFWRDYNPTSREGGG [Pro-3/GST fusion protein],"Charged tRNA (tRNA-Pro) in cells, +Inducer",[3],23%
same,"Charged tRNA (tRNA-Pro) in cells, -Inducer",[3],70%
same,"Survival (7 days), mice infected with E. coli JM109/pSC/pC3844, anhydrotetracycline 0.5 mg/kg i.p. x2",[3],5 of 5 mice
same,"Survival (7 days), mice infected with E. coli JM109/pSC/pC3844, anhydrotetracycline 1 mg/kg i.p. x2",[3],5 of 5 mice
same,"Survival (7 days), mice infected with E. coli JM109/pSC/pC3844, anhydrotetracycline 2 mg/kg i.p. x2",[3],5 of 5 mice
same,"Survival (7 days), mice infected with E. coli JM109/pSC/pC3844, saline (no induction)",[3],0 of 5 mice
same,Ki,[4],180 nM
SREWHFWRDYNPTSR (modifications not checked) [Pro-3 peptide (…)],Ki,[5],300 nM
